This is an account of results in article PMC7380166, “How to Study the Metabolism of New Psychoactive Substances for the Purpose of Toxicological Screenings—A Follow-Up Study Comparing Pooled Human Liver S9, HepaRG Cells, and Zebrafish Larvae” (Frontiers in Chemistry, 2020).

Series [1] concerns the target T1, hCES1b (Homo sapiens, UniProt P23141).
T1 construct: purchased Corning
T1 sequence (P23141 18-567): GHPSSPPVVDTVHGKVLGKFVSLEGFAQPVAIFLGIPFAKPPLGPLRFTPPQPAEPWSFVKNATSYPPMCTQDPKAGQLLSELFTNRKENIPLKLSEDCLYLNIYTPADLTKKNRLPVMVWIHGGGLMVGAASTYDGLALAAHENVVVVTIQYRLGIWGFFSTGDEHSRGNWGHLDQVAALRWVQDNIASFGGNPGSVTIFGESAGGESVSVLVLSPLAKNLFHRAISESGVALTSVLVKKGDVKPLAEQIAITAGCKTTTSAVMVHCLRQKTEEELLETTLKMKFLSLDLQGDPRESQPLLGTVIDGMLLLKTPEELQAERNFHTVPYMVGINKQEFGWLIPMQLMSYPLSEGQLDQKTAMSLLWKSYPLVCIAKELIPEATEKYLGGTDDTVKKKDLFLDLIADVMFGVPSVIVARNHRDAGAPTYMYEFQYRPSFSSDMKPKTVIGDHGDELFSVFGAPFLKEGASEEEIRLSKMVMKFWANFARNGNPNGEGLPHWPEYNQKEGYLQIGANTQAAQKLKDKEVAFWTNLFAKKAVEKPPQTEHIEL
Description: Esterases activity screening, hCES1b. It is filed as in vitro ADME. More on the design: key: +, detected; –: −, not detected. Conditions: 100 μM 4F-MDMB-BINACA, 0.2 mg protein/ml, duplicate. The procedure: (§1) Experiments were performed in accordance with a previous study (Meyer et al., [2015]) with minor modifications. The final volume per reaction tube was 100 μl with a final 4F-MDMB-BINACA concentration of 100 μM and enzyme concentration of 0.2 mg protein/ml for hCES1b, hCES1c, and hCES2. Incubations with pHLM and pHLS9 (0.2 mg protein/ml, each) were performed in a similar manner. Additionally, incubations with human plasma (50 μl pooled human plasma, 40 μl phosphate buffer, and 10 μl substrate) were performed. The reactions were started by adding the enzyme-containing preparation and terminated with an equal volume of ice-cold acetonitrile containing diazepam-d5 (100 μM) as an internal standard. Only plasma incubations were terminated by addition of a three-fold volume of ice-cold acetonitrile. The reaction mixtures were centrifuged at 18,407 × g for 15 min, and then supernatants were transferred to autosampler vials, and 5 μl was injected onto the LC-HRMS/MS system. Negative control incubations without enzyme were prepared to identify non-metabolically formed compounds. All incubations were done in duplicate.

Series [2] concerns the target T1, hCES1b. Description: Esterases activity screening, hCES1b. Format: in vitro ADME. Details: key: +, detected; –, not detected. To be noted: 100 μM 4F-MDMB-BINACA, 0.2 mg protein/ml, duplicate. As to the method:
as §1

The test system of series [3] is zebrafish larvae. Put plainly: In vivo maximum-tolerated concentration (MTC) study in zebrafish larvae. More on the design: species or system zebrafish (Danio rerio). To be noted: for Survival rate: 24-h treatment, fifteen larvae. In a few lines:
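AB wild-type larvae, one per well in Danieau's medium (pH 7.1–7.3) at 28°C, exposed from 4 dpf for 24 h to 0, 0.01, 0.1, 1, 10, 50 or 100 μM with 1% DMSO.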

The conditions of series [4]: [2019], cited from earlier work.
For series [5] the following is noted: pHLM without co-substrates of phase II reactions; ref Haschimi et al., [2019]; cited from earlier work.
In series [6] the test system is monooxygenases. Put plainly: Monooxygenases activity screening, summary over isozymes. Format: in vitro ADME, human. To be noted: single-enzyme incubations, 25 μM. As to the method: According to an established protocol (Wagmann et al., [2016]), the final volume per reaction tube was 50 μl with a final 4F-MDMB-BINACA concentration of 25 μM and enzyme concentrations of 50 pmol/ml for CYP1A2, CYP2A6, CYP2B6, CYP2C8, CYP2C9, CYP2C19, CYP2D6, CYP2E1, CYP3A4, and CYP3A5, respectively, or 0.25 mg protein/ml for FMO3. Furthermore, the reaction mixture contained 90 mM phosphate buffer (pH 7.4), superoxide dismutase (200 U/ml), isocitrate (5 mM), MgCl2 (5 mM), isocitrate dehydrogenase (0.5 U/ml), and NADP^+ (1.2 mM). The phosphate buffer was replaced with Tris buffer (90 mM) for incubations with CYP2A6 and CYP2C9 according to the manufacturer's recommendation. All incubations were performed at 37°C for 30 min and terminated by adding 50 μl of ice-cold acetonitrile. Afterwards, the mixtures were centrifuged at 18,407 × g for 5 min, 70 μl of the supernatants was transferred into autosampler vials, and 1 μl was injected onto the LC-HRMS/MS system. Positive control incubations were performed with pHLM (1 mg microsomal protein/ml), and negative controls without enzyme were prepared to identify non-metabolically formed compounds. All incubations were done in duplicate.

For `CC(C)(C)C(NC(=O)c1nn(CCCCF)c2ccccc12)C(=O)O` (centres unmarked) [MB8], in series [1], the “Detection of metabolite in incubation with hCES1b” value was “+”.

With `O=C(O)c1nn(CCCCF)c2ccccc12` [MB1], in series [2], the “Detection of metabolite in incubation with hCES1b” value is “–”.

Consider `COC(=O)C(NC(=O)c1nn(CCCCF)c2ccccc12)C(C)(C)C` (centres unmarked) [4F-MDMB-BINACA, methyl 2-[1-(4-fluorobutyl)-1H-indazole-3-carbonyl]amino-3,3-dimethylbutanoate], for which the Survival rate in series [3] (0.01 μM, larvae 4 dpf) was 100%; in series [3] (0.1 μM, larvae 4 dpf), 100%; in series [3] (1 μM, larvae 4 dpf), 100%; in series [3] (10 μM, larvae 4 dpf) it was 100%; in series [3] (50 μM, larvae 4 dpf) it was 73%; in series [3] (100 μM, larvae 4 dpf) it was 53%. In addition, in series [3] (24 h exposure via medium), the “Concentration considered non-toxic for zebrafish larvae (4 dpf)” value came out at 25 µM. For the same molecule, the Malformations result in series [3] (up to 100 μM, larvae 4 dpf, 24 h) was “No malformations”. Also, the “Number of metabolites identified in human urine samples” value in series [4] (17 human urine samples, conjugate cleavage, ref Haschimi et al.) is 13. In addition, the “Number of metabolites identified in blood and urine samples” value in series [4] (four blood and four urine samples, ref Krotulski et al.) is listed as “nine”. Besides, in series [5], the “Number of phase I metabolites identified in pHLM incubations” value is 11. In addition, the “Monooxygenases involved in the metabolic phase I reactions” value in series [6] is “CYP1A2, CYP2C8, CYP2C19, CYP3A4, and CYP3A5”.
